Values of other authors as cited in PMC9620260 (Journal of Medicinal Chemistry, 2022).
Where two headings read alike, the source gives them in different places.

Key:
[1] = biological target: T. cruzi trans-sialidase (TcTS)
[2] = test system: C. perfringens sialidase (CpNanI)
Neu1 = conditions: selective for Neu1 over the other isoenzymes
[3] = not given; remark: listed apart in the source

Compound: CC(=O)N[C@H]1[C@H]([C@H](O)[C@H](O)CO)O[C@@](Oc2ccc([N+](=O)[O-])cc2C(F)F)(C(=O)O)C[C@@H]1O [2-difluoromethyl-4-nitrophenyl glycoside of αNeu5Ac]
- T. cruzi infection of mammalian cells (T. cruzi): prevents T. cruzi infection of mammalian cells
- IC50 ([1]; irreversible inhibitor of trans-sialidase): 600 µM

Compound: O=C(O)c1cc(O)c2c(c1)C(=O)c1cc(O)c(Cl)c(O)c1C2=O [6-chloro-9,10-dihydro-4,5,7-trihydroxy-9,10-dioxo-2-anthracenecarboxylic acid]
- IC50 ([1]; specific TcTS inhibitor): 0.58 µM

Compound: COc1ccc(C=CC(=O)C=C(O)C=Cc2ccc(O)c(O)c2)cc1O [7-(3,4-dihydroxyphenyl)-5-hydroxy-1-(3-hydroxy-4-methoxyphenyl) hepta-1,4,6-trien-3-one]
- inhibition of S. pneumoniae NanA (SpNanA): inhibit
- inhibition of V. cholerae sialidase (V. cholerae sialidase): inhibit
- inhibition of C. perfringens sialidase [2]: inhibit

Compound: CC(=O)NC1C(O)C(F)C(F)(C(=O)O)OC1C(O)C(O)CN=[N+]=[N-] (stereo not shown) [9-azido-modified 2,3-diF-Neu5Ac]
- inhibitory activity against bacterial sialidases (bacterial sialidase; effect of modification of 2,3-difluoro-Sia): increased inhibitory activity

Compound: CCCCC(=O)NC[C@@H](O)[C@@H](O)[C@@H]1OC(C(=O)O)=C[C@H](O)[C@H]1NC(C)=O [C-9 Pentylamido derivative of DANA]
- IC50 against Neu1 (Neu1): micromolar

Compound: CC(=O)N[C@H]1[C@H]([C@H](O)[C@H](O)CO)OC(C(=O)O)=C[C@@H]1O [DANA, 2-deoxy-2,3-dehydro-N-acetylneuraminic acid]
- IC50 against TcTS [1]: several hundred
- Ki values (influenza viral NA; influenza viral neuraminidases): micromolar range

Compound: COc1cc(C)c(C(=O)Oc2cc(C)c(C(=O)O)c(O)c2)c(O)c1 [Evernic acid]
- inhibition against bacterial sialidase (bacterial sialidase): dose-dependent inhibition

Compound: CC(=O)N[C@H]1[C@H]([C@H](O)[C@H](O)CO)OC(O)(C(=O)O)C[C@@H]1O (stereo partly shown) [Neu5Ac, N-acetylneuraminic acid]
- inhibition of sialidases (sialidases): weak inhibitor

Compound: COC(=O)C1(OC(C)=O)OC([C@H](OC(C)=O)[C@@H](COC(C)=O)OC(C)=O)C(NC(C)=O)C(OC(C)=O)C1F (stereo partly shown) [P-3Fax-Neu5Ac]
- nephrotoxicity: well-known nephrotoxicity
- inhibition of the sialyltransferases (sialyltransferases): cell-permeable specific inhibitor

Compound: COc1cc2oc(-c3ccc(O)cc3O)c(CC=C(C)C)c(=O)c2c(O)c1/C=C/C(C)C [artocarpin]
- inhibitory activity against S. pneumoniae sialidases (S. pneumoniae sialidases): inhibitory activity
- inhibitory activity against influenza sialidase (influenza viral NA): inhibitory activity

Compound: O=C(CCc1ccccc1)C[C@@H]1C[C@@H](c2ccccc2)c2c(cc(/C=C/c3ccccc3)oc2=O)O1 [katsumadain A]
- inhibitory activity against S. pneumoniae sialidases (S. pneumoniae sialidases): inhibitory activity
- inhibitory activity against influenza sialidase (influenza viral NA): inhibitory activity

Compound: CCOC(=O)C1=C[C@@H](OC(CC)CC)[C@H](NC(C)=O)[C@@H](N)C1 [oseltamivir]
- side effects [3]: neuropsychiatric side effects
